Values quoted from earlier work, collected in patent US7842720B2, “Anticancer and antiprotozoal dihydroartemisinene and dihydroartemisitene dimers with desirable chemical functionalities” (Elsohly Laboratories, Incorporated, priority 2004, dated 2010).

Legend:
[1] = test system: chloroquine-sensitive and chloroquine-resistant strains of Plasmodium falciparum
malaria = details: comparison among artemisinin derivatives

| SMILES | anti-malarial activity [1] | anti-malarial activity relative to comparator (malaria) |
| --- | --- | --- |
| C[C@@H]1CC[C@H]2[C@@H](C)C(=O)O[C@@H]3O[C@@]4(C)CC[C@@H]1[C@]32OO4 [artemisinin] | anti-malarial activity | – |
| C[C@H]1[C@H](OC(=O)CCC(=O)[O-])O[C@@H]2O[C@@]3(C)CC[C@H]4[C@H](C)CC[C@@H]1[C@@]24OO3.[Na+] [sodium artesunate] | – | more activity |
